# Source: patent US3997403A, “Antibiotic G-418 and the production thereof” (Schering Corporation, priority 1975, dated 1976)
# Where a name gives a salt, the structure may show the parent alone.
# What was measured:
# E. Histolytica = experiment: Oral activity against experimental cecal E. Histolytica infections in rats; format: in vivo, male Royal Hart rats; conditions: for A.D.I. (average degree of infection): scale 0 to 4, controls averaged 2.2
# Source text: Table VII and Table VIII set forth in vivo test results which illustrate the antiprotozoal activity of Antibiotic G-418. The host for the tests were recently weaned male Royal Hart rats (3-4 weeks old) weighing about 50-70 g. The test procedure is a modification of one described by R. J. Schnitzer on pages 355-443 in Experimental Chemotherapy, Vol. 1, Academic Press, New York (1963).
# *A.D.I. -- defined as the average degree of infection based upon gross
# observations of pathological changes in the cecum and microscopic
# observations of the number of amoebae found. These observations are
# recorded on a scale of from zero to four, zero representing a
# substantially normal cecum. Untreated but infected controls range from
# about two to four. In the data set forth the controls averaged 2.2.
# [1] = system: Bacillus subtilis A.T.C.C. 6633; experiment: standard disc plate microbiological assay; format: cell-based; conditions: against the standard antibiotic base (1000 mcg/mg)
# Source text: The assay is a standard disc plate assay using Difco Antibiotic Medium No. 5 and Bacillus subtilis A.T.C.C. 6633 as the test organism. The physical conditions of the test are substantially those described for neomycin (Grove and Randall), Assay Methods of Antibiotics published by Medical Encyclopedia Incorporated (1955). The assay is run against a standard preparation of Antibiotic G-418 having a defined potency of 1000 mcg/mg. […] The standard antibiotic sulfate salt assays about 750 mcg/mg. against the standard antibiotic base.
Structure (SMILES),"Parasitological Cure Negative/Total (E. Histolytica; oral 6.5 mg/kg/day, 1 day)","A.D.I. (average degree of infection) (E. Histolytica; oral 6.5 mg/kg/day, 1 day)","Parasitological Cure Negative/Total (E. Histolytica; oral 6.5 mg/kg/day, 3 days)","A.D.I. (average degree of infection) (E. Histolytica; oral 6.5 mg/kg/day, 3 days)","Parasitological Cure Negative/Total (E. Histolytica; oral 6.5 mg/kg/day, 6 days)","A.D.I. (average degree of infection) (E. Histolytica; oral 6.5 mg/kg/day, 6 days)","Parasitological Cure Negative/Total (E. Histolytica; oral 13 mg/kg/day, 6 days)","A.D.I. (average degree of infection) (E. Histolytica; oral 13 mg/kg/day, 6 days)","Parasitological Cure Negative/Total (E. Histolytica; oral 25 mg/kg/day, 6 days)","A.D.I. (average degree of infection) (E. Histolytica; oral 25 mg/kg/day, 6 days)",potency of standard antibiotic sulfate salt [1]
Cc1ncc([N+](=O)[O-])n1CCO [Flagyl],0/4,1.5,0/3,1.7,1/4,0.8,2/6,0.8,1/5,0.8,–
CN[C@@H]1[C@@H](O)[C@@H](O[C@@H]2[C@@H](O)[C@H](O[C@H]3O[C@H]([C@@H](C)O)[C@@H](O)[C@H](O)[C@H]3N)[C@@H](N)C[C@H]2N)OC[C@]1(C)O [standard antibiotic sulfate salt],–,–,–,–,–,–,–,–,–,–,about 750 mcg/mg
